Test results published in ChEMBL document CHEMBL1149940, “Conformationally constrained analogues of diacylglycerol. 6. Changes in PK-C binding affinity for 3-O-acyl-2-deoxy-L-ribonolactones bearing different acyl chains” (Bioorg Med Chem Lett, 1994).

Legend:
[1] = Inhibition of [3H]phorbol-12,13-dibutyrate binding to mouse brain protein kinase C
[2] = Logarithm of water solubility was reported; type: ADME; conditions: buffer
Mus musculus = species on record: Mus musculus; assay: Inhibition of [3H]phorbol-12,13-dibutyrate binding to mouse brain protein kinase C at 100 ug/mL
[3] = Inhibition of [3H]phorbol-12,13-dibutyrate binding to mouse brain protein kinase C (calculated value from percent inhibition at 100 ug/mL)
[4] = Inhibition of [3H]phorbol-12,13-dibutyrate binding to mouse brain protein kinase C (No inhibition at >1700 uM)

**Q.** Which results are given for `CCCCCCCCCCC(CCCC)CCCCCCC(=O)O[C@@H]1CC(=O)O[C@H]1CO` (some centres undefined)?
**A.** Ki [1]: 2.45 µM; log S [2]: -6.46 M/m3

**Q.** What does the source list for `CCCCCCCCCCCCCC(=O)O[C@@H]1CC(=O)O[C@H]1CO`?
**A.** Ki [1]: 2.53 µM; log S [2]: -2.62 M/m3

**Q.** Which results are given for `CCCCCCCCCC(=O)O[C@@H]1CC(=O)O[C@H]1CO`?
**A.** Ki [1]: 4.06 µM; log S [2]: -0.54 M/m3

**Q.** Which results are given for `CCCCCCCCCCC(CCCCCCC(=O)O[C@@H]1CC(=O)O[C@H]1CO)c1ccccc1` (some centres undefined)?
**A.** Ki [1]: 1.21 µM; log S [2]: -6.91 M/m3

**Q.** With `CCCCCCCC/C=C/CCCCCCCC(=O)O[C@@H]1CC(=O)O[C@H]1CO` as the compound, how does the Ki [1] read?
**A.** Its Ki is 1.33 µM.

**Q.** What about the “log S” value [2] of the same compound?
**A.** Its value is -3.9 M/m3.

**Q.** What does the source list for `O=C1C[C@@H](OC(=O)c2cccc3ccccc23)[C@H](CO)O1`?
**A.** Ki [1]: 23.5 µM; log S [2]: -0.18 M/m3

**Q.** For `O=C1C[C@H](OC(=O)c2ccc3ccccc3c2)[C@@H](CO)O1`, which inhibition (Mus musculus) is on record?
**A.** The inhibition was 28%.

**Q.** For `O=C(Cc1ccccc1)O[C@H]1CC(=O)O[C@@H]1CO`, which inhibition (Mus musculus) is on record?
**A.** Its inhibition is 29%.

**Q.** Which Ki [1] does the source give for `CCCCCC(=O)O[C@@H]1CC(=O)O[C@H]1CO` here?
**A.** Its Ki is 188 µM.

**Q.** What about the “log S” value [2] of the same compound?
**A.** Its value is 1.54 M/m3.

**Q.** Which inhibition (Mus musculus) does the source give for `O=C1C[C@H](OC(=O)c2ccccc2)[C@@H](CO)O1` here?
**A.** Its inhibition is 9.5%.

**Q.** For `O=C(/C=C/c1ccccc1)O[C@H]1CC(=O)O[C@@H]1CO`, which inhibition (Mus musculus) is on record?
**A.** The inhibition was 18.5%.

**Q.** Which results are given for `CCCCCCCCCCC(C)CCCCCCC(=O)O[C@@H]1CC(=O)O[C@H]1CO` (some centres undefined)?
**A.** Ki [1]: 2.39 µM; log S [2]: -4.9 M/m3

**Q.** For `O=C1C[C@H](OC(=O)c2ccc(-c3ccccc3)cc2)[C@@H](CO)O1`, which inhibition (Mus musculus) is on record?
**A.** The inhibition was 6.5%.

**Q.** For `CCCCCCCCCCCCCC(=O)O[C@H]1CC(=O)O[C@@H]1CO`, which Ki [1] is on record?
**A.** The Ki was 5.3 µM.

**Q.** For `CCc1ccc(C(=O)O[C@H]2CC(=O)O[C@@H]2CO)cc1`, which inhibition (Mus musculus) is on record?
**A.** The inhibition was 21%.

**Q.** Which inhibition (Mus musculus) does the source give for `COc1ccc(C(=O)O[C@H]2CC(=O)O[C@@H]2CO)cc1` here?
**A.** Its inhibition is 2%.

**Q.** For `CCCCCCCc1ccc(C(=O)O[C@H]2CC(=O)O[C@@H]2CO)cc1`, which Ki [1] is on record?
**A.** The Ki was 8.9 µM.

**Q.** Which inhibition (Mus musculus) does the source give for `O=C1C[C@H](OC(=O)c2cccc3ccccc23)[C@@H](CO)O1` here?
**A.** Its inhibition is 30%.

**Q.** With `O=C1C[C@@H](OC(=O)Cc2ccccc2)[C@H](CO)O1` as the compound, how does the Ki [3] read?
**A.** The Ki was 222 µM.

**Q.** What about the “log S” value [2] of the same compound?
**A.** Its value is 1.09 M/m3.

**Q.** Which Ki [1] does the source give for `CCCCCCCCCCCCCCCCCC(=O)O[C@@H]1CC(=O)O[C@H]1CO` here?
**A.** Its Ki is 8.69 µM.

**Q.** And the “log S” value [2]?
**A.** Its value is -4.7 M/m3.

**Q.** Which Ki [1] does the source give for `CCCCCCCc1ccc(C(=O)O[C@@H]2CC(=O)O[C@H]2CO)cc1` here?
**A.** The Ki was 3.2 µM.

**Q.** And the “log S” value [2]?
**A.** The value was -2.05 M/m3.

**Q.** Which results are given for `CC(=O)O[C@@H]1CC(=O)O[C@H]1CO`?
**A.** Ki [4]: Not Active; log S [2]: 3.62 M/m3
